Experimental data published in US20220386606A1, “SPECIFICALLY SUBSTITUTED 3-PHENYL-5-SPIROCYCLOPENTYL-3-PYRROLIN-2-ONES AND THEIR USE AS HERBICIDES” (Bayer Aktiengesellschaft, priority 2019, published 2022).

Assays:
POLCO = test: Pre-emergence herbicidal action against POLCO; assay type: in vivo, Polygonum convolvulus; conditions: 320 g/ha
Procedure, shortened: (§1)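 Seeds sown in sandy loam in wood-fiber pots and covered with soil; WP or EC formulations applied to covering soil surface as aqueous suspension/emulsion at 600 to 800 L/ha water plus 0.2% wetting agent. Greenhouse-grown; damage scored visually after 3 weeks versus untreated controls (100% = dead, 0% = like control).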

LOLRI [1] = test: Pre-emergence herbicidal action against LOLRI (Table 8, titled post-emergence at 320 g/ha); assay type: in vivo, Lolium rigidum; conditions: table stands in the pre-emergence section
Procedure, shortened: as §1

ABUTH [2] = test: Post-emergence herbicidal action against ABUTH; assay type: in vivo, Abutylon threophrasti; conditions: 80 g/ha, visual assessment about 3 weeks after treatment vs untreated controls
Procedure, shortened: (§2)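 Sow in sandy loam and grow in the greenhouse for 2 to 3 weeks to the one-leaf stage. Spray the compound as an aqueous suspension or emulsion with 0.2% wetting agent, 600 to 800 l/ha water rate. Hold about 3 weeks, then score damage visually versus controls.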

AMARE [3] = test: Pre-emergence herbicidal action against AMARE; assay type: in vivo, Amaranthus retroflexus; conditions: 320 g/ha
Procedure, shortened: as §1

DIGSA [4] = test: Pre-emergence herbicidal action against DIGSA; assay type: in vivo, Digitaria sanguinalis; conditions: 320 g/ha, scored visually after 3 weeks vs untreated controls
Procedure, shortened: as §1

DIGSA [5] = test: Post-emergence herbicidal action against DIGSA; assay type: in vivo, Digitaria sanguinalis; conditions: 80 g/ha, visual assessment about 3 weeks after treatment vs untreated controls
Procedure, shortened: as §2

AVEFA [6] = test: Post-emergence herbicidal action against AVEFA; assay type: in vivo, Avena fatua; conditions: 80 g/ha, visual assessment after about 3 weeks
Procedure, shortened: as §2

ECHCG [7] = test: Post-emergence herbicidal action against ECHCG; assay type: in vivo, Echinochloa crus-galli; conditions: 80 g/ha, visual assessment about 3 weeks after treatment vs untreated controls
Procedure, shortened: as §2

ALOMY [8] = test: Pre-emergence herbicidal action against ALOMY; assay type: in vivo, Alopecurus myosuroides; conditions: 320 g/ha, scored visually after 3 weeks vs untreated controls
Procedure, shortened: as §1

SETVI [9] = test: Pre-emergence herbicidal action against SETVI; assay type: in vivo, Setaria viridis; conditions: 320 g/ha, scored visually after 3 weeks vs untreated controls
Procedure, shortened: as §1

MATIN = test: Pre-emergence herbicidal action against MATIN; assay type: in vivo; conditions: 320 g/ha
Procedure, shortened: as §1

SETVI [10] = test: Post-emergence herbicidal action against SETVI; assay type: in vivo, Setaria viridis; conditions: 80 g/ha, visual assessment about 3 weeks after treatment vs untreated controls
Procedure, shortened: as §2

VIOTR [11] = test: Pre-emergence herbicidal action against VIOTR; assay type: in vivo, Viola tricolor; conditions: 320 g/ha
Procedure, shortened: as §1

LOLRI [12] = test: Post-emergence herbicidal action against LOLRI; assay type: in vivo, Lolium rigidum; conditions: 80 g/ha, visual assessment about 3 weeks after treatment vs untreated controls
Procedure, shortened: as §2

ECHCG [13] = test: Pre-emergence herbicidal action against ECHCG; assay type: in vivo, Echinochloa crus-galli; conditions: 320 g/ha, scored visually after 3 weeks vs untreated controls
Procedure, shortened: as §1

ALOMY [14] = test: Post-emergence herbicidal action against ALOMY; assay type: in vivo, Alopecurus myosuroides; conditions: 80 g/ha, visual assessment after about 3 weeks
Procedure, shortened: as §2

VIOTR [15] = test: Post-emergence herbicidal action against VIOTR; assay type: in vivo, Viola tricolor; conditions: 80 g/ha, visual assessment about 3 weeks after treatment vs untreated controls
Method: (§3) Seeds of monocotyledonous and dicotyledonous weed and crop plants are laid out in sandy loam soil in wood-fiber pots, covered with soil and cultivated in a greenhouse under good growth conditions. 2 to 3 weeks after sowing, the test plants are treated at the one-leaf stage. The compounds of the invention, formulated in the form of wettable powders (WP) or as emulsion concentrates (EC), are then sprayed onto the green parts of the plants as aqueous suspension or emulsion at a water application rate equating to 600 to 800 l/ha with addition of 0.2% wetting agent. After the test plants have been left to stand in the greenhouse under optimal growth conditions for about 3 weeks, the action of the preparations is assessed visually in comparison to untreated controls (herbicidal action in percent (%): 100% activity=the plants have died, 0% activity=like control plants).

AVEFA [16] = test: Pre-emergence herbicidal action against AVEFA; assay type: in vivo, Avena fatua; conditions: 320 g/ha, scored visually after 3 weeks vs untreated controls
Procedure, shortened: as §1

AMARE [17] = test: Post-emergence herbicidal action against AMARE; assay type: in vivo, Amaranthus retroflexus; conditions: 80 g/ha, visual assessment about 3 weeks after treatment vs untreated controls
Method: as §3

HORMU = test: Post-emergence herbicidal action against HORMU; assay type: in vivo, Hordeum murinum; conditions: 80 g/ha, visual assessment about 3 weeks after treatment vs untreated controls
Method: as §3

VERPE = test: Pre-emergence herbicidal action against VERPE; assay type: in vivo, Veronica persica; conditions: 320 g/ha
Procedure, shortened: as §1

ABUTH [18] = test: Pre-emergence herbicidal action against ABUTH; assay type: in vivo, Abutylon threophrasti; conditions: 320 g/ha
Excerpt: Seeds of monocotyledonous and dicotyledonous weed plants and crop plants are laid out in sandy loam soil in wood-fiber pots and covered with soil. The compounds of the invention, formulated in the form of wettable powders (WP) or as emulsion concentrates (EC), are then applied to the surface of the covering soil as aqueous suspension or emulsion at a water application rate equating to 600 to 800 L/ha with addition of 0.2% wetting agent.
After the treatment, the pots are placed in a greenhouse and kept under good growth conditions for the trial plants. The damage to the test plants is scored visually after a test period of 3 weeks by comparison with untreated controls (herbicidal activity in percent (%): 100% activity=the plants have died, 0% activity=like control plants).

SMILES | Pre-emergence herbicidal action against LOLRI in % (LOLRI [1]) | Post-emergence action against ABUTH in % (ABUTH [2]) | Pre-emergence action against AMARE in % (AMARE [3]) | Pre-emergence action against DIGSA in % (DIGSA [4]) | Post-emergence action against DIGSA in % (DIGSA [5]) | Post-emergence action against AVEFA in % (AVEFA [6]) | Post-emergence action against ECHCG in % (ECHCG [7]) | Pre-emergence action against ALOMY in % (ALOMY [8]) | Pre-emergence action against SETVI in % (SETVI [9]) | Post-emergence action against SETVI in % (SETVI [10]) | Pre-emergence action against VIOTR in % (VIOTR [11]) | Post-emergence action against LOLRI in % (LOLRI [12]) | Pre-emergence action against ECHCG in % (ECHCG [13]) | Post-emergence action against ALOMY in % (ALOMY [14]) | Post-emergence action against VIOTR in % (VIOTR [15]) | Pre-emergence action against AVEFA in % (AVEFA [16]) | Post-emergence action against AMARE in % (AMARE [17]) | Pre-emergence action against ABUTH in % (ABUTH [18]) | also measured
CC#Cc1cc(C)c(C2=C(O)C3(CCC(COC)C3)NC2=O)c(Br)c1 (centres unmarked) [Example I-19] | 100% | 90% | 100% | 100% | 100% | 90% | 100% | 100% | 100% | 100% | 100% | 100% | 100% | 100% | 80% | 100% |  |  | Pre-emergence action against POLCO in % (POLCO): 100%; Pre-emergence action against MATIN in % (MATIN): 80%
CC#Cc1cc(C)c(C2=C(O)C3(CCC(COC)C3)NC2=O)c(OC)c1 (centres unmarked) [Example I-31] | 100% | 80% |  | 100% | 100% | 100% | 100% | 100% | 100% | 100% | 80% | 100% | 100% | 100% |  | 80% | 80% |  | 
CC#Cc1cc(C)c(C2=C(O)C3(CCC(COC)C3)NC2=O)c(F)c1 (centres unmarked) [Example I-36] | 100% | 80% | 90% | 100% | 100% | 100% | 100% | 100% | 100% |  | 80% | 100% | 100% | 100% |  | 80% | 80% |  | 
CC#Cc1cc(F)c(C2=C(O)C3(CCC(COC)C3)NC2=O)c(OC)c1 (centres unmarked) [Example I-40] | 90% |  |  | 100% | 100% | 90% | 100% | 100% | 100% | 100% |  | 90% | 100% | 100% |  | 100% | 80% |  | 
CC#Cc1cc(C)c(C2=C(OC(=O)C(C)C)C3(CCC(COCC)C3)NC2=O)c(Cl)c1 (centres unmarked) [Example P-17] |  | 90% |  |  | 100% | 100% | 100% |  |  | 100% |  | 100% |  | 100% | 80% |  |  |  | Post-emergence action against HORMU in % (HORMU): 100%
CC#Cc1cc(C)c(C2=C(OC(=O)OCC)C3(CCC(COC)C3)NC2=O)c(Cl)c1 (centres unmarked) [Example P-18] |  | 80% |  |  | 100% | 100% | 100% |  |  | 100% |  | 100% |  | 100% |  |  | 80% |  | Post-emergence action against HORMU in % (HORMU): 100%
CC#Cc1cc(C)c(C2=C(OC(=O)OCC)C3(CCC(COCC)C3)NC2=O)c(Br)c1 (centres unmarked) [Example P-34] | 100% |  |  | 100% | 100% | 90% | 100% | 100% | 100% | 100% | 100% | 90% | 100% | 100% | 80% | 100% |  | 90% | Pre-emergence action against VERPE in % (VERPE): 80%
CC#Cc1cc(C)c(C2=C(OC(=O)C(C)C)C3(CCC(COC)C3)NC2=O)c(F)c1 (centres unmarked) [Example P-58] | 100% | 80% | 90% | 100% | 100% | 90% | 100% | 100% | 100% |  | 100% | 100% | 100% | 100% |  | 90% | 80% | 80% | 
CC#Cc1cc(F)c(C2=C(OC(=O)OCC)C3(CCC(COC)C3)NC2=O)c(OC)c1 (centres unmarked) [Example P-62] | 100% | 80% |  | 100% | 100% | 90% | 100% | 100% | 100% | 100% |  | 90% | 100% | 90% |  | 90% | 80% |  | 
C=CCOCC1CCC2(C1)NC(=O)C(c1c(C)cc(C#CC)cc1Br)=C2OC(=O)OCC (centres unmarked) [Example P-88] | 100% |  |  | 100% | 90% |  | 100% | 100% | 100% | 100% | 100% | 100% | 100% | 100% |  | 90% | 80% | 80% | Pre-emergence action against VERPE in % (VERPE): 100%
